What was measured:
[1] = biological target: Serine/threonine-protein kinase mTOR (Homo sapiens) (UniProt P42345); experiment: Inhibition of human mTOR assessed as enzyme activity at 1 uM relative to control; set-up: scale not given: the % may be the effect or the level left
[2] = biological target: Fibroblast growth factor receptor 1 (Homo sapiens) (UniProt P11362); experiment: Inhibition of human FGFR1 assessed as enzyme activity at 1 uM relative to control; set-up: scale not given: the % may be the effect or the level left
[3] = biological target: Cyclin-dependent kinase 5/CDK5 activator 1 (Homo sapiens) (UniProt Q00535+Q15078); experiment: Inhibition of human CDK5/p25 assessed as enzyme activity at 1 uM relative to control; assay type: protein-complex assay; set-up: scale not given: the % may be the effect or the level left
Sequence of Cyclin-dependent kinase 5/CDK5 activator 1 (Homo sapiens) (Q00535 whole entry): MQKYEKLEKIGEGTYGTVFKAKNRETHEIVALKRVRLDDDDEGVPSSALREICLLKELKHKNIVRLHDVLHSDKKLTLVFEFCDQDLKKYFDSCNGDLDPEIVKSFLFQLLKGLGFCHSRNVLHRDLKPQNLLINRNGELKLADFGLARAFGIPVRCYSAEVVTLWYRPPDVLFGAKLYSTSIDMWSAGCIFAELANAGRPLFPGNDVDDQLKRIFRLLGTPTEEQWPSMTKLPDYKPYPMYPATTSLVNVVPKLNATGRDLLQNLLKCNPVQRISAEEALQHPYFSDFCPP
Sequence of Cyclin-dependent kinase 5/CDK5 activator 1 (Homo sapiens) (Q15078 99-307 partner limits assumed): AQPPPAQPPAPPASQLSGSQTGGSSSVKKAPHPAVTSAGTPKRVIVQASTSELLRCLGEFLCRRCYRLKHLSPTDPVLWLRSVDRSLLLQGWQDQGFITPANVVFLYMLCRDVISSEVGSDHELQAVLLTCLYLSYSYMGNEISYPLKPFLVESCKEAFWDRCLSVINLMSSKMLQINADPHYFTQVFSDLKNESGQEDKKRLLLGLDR

[4] = biological target: Maternal embryonic leucine zipper kinase (Homo sapiens) (UniProt Q14680); experiment: Inhibition of human MELK assessed as enzyme activity at 1 uM relative to control; set-up: scale not given: the % may be the effect or the level left
[5] = biological target: G protein-coupled receptor kinase 6 (Homo sapiens) (UniProt P43250); experiment: Inhibition of human GRK6 assessed as enzyme activity at 1 uM relative to control; set-up: scale not given: the % may be the effect or the level left
[6] = biological target: Mitogen-activated protein kinase 8 (Homo sapiens) (UniProt P45983); experiment: Inhibition of human JNK1alpha1 assessed as enzyme activity at 1 uM relative to control; set-up: scale not given: the % may be the effect or the level left
[7] = biological target: cGMP-dependent protein kinase 1 (Homo sapiens) (UniProt Q13976); experiment: Inhibition of human PRKG1alpha assessed as enzyme activity at 1 uM relative to control; set-up: scale not given: the % may be the effect or the level left
[8] = biological target: Serine/threonine-protein kinase NLK (Homo sapiens) (UniProt Q9UBE8); experiment: Inhibition of human NLK assessed as enzyme activity at 1 uM relative to control; set-up: scale not given: the % may be the effect or the level left
[9] = AUC in mouse at 30 mg/kg, po; assay type: ADME, organism-based; set-up: dose 30 mg/kg, route oral; conditions: plasma
[10] = biological target: Dual specificity mitogen-activated protein kinase kinase 7 (Homo sapiens) (UniProt O14733); experiment: Inhibition of human MKK7 assessed as enzyme activity at 1 uM relative to control; set-up: scale not given: the % may be the effect or the level left
[11] = Antitumor activity against human LOX cells expressing B-Raf V600E mutant xenografted in nude mouse assessed as tumor growth inhibition at 30 mg/kg qd for 4 days measured on day 5; assay type: functional; conditions: read-out: TGI
[12] = biological target: Tyrosine-protein kinase FRK (Homo sapiens) (UniProt P42685); experiment: Inhibition of human PTK5 assessed as enzyme activity at 1 uM relative to control; set-up: scale not given: the % may be the effect or the level left
[13] = biological target: Inhibitor of nuclear factor kappa-B kinase subunit alpha (Homo sapiens) (UniProt O15111); experiment: Inhibition of human IKKalpha assessed as enzyme activity at 1 uM relative to control; set-up: scale not given: the % may be the effect or the level left
[14] = biological target: Fibroblast growth factor receptor 3 (Homo sapiens) (UniProt P22607); experiment: Inhibition of human FGFR3 assessed as enzyme activity at 1 uM relative to control; set-up: scale not given: the % may be the effect or the level left
Sequence of Fibroblast growth factor receptor 3 (Homo sapiens) (P22607 23-806 limits assumed): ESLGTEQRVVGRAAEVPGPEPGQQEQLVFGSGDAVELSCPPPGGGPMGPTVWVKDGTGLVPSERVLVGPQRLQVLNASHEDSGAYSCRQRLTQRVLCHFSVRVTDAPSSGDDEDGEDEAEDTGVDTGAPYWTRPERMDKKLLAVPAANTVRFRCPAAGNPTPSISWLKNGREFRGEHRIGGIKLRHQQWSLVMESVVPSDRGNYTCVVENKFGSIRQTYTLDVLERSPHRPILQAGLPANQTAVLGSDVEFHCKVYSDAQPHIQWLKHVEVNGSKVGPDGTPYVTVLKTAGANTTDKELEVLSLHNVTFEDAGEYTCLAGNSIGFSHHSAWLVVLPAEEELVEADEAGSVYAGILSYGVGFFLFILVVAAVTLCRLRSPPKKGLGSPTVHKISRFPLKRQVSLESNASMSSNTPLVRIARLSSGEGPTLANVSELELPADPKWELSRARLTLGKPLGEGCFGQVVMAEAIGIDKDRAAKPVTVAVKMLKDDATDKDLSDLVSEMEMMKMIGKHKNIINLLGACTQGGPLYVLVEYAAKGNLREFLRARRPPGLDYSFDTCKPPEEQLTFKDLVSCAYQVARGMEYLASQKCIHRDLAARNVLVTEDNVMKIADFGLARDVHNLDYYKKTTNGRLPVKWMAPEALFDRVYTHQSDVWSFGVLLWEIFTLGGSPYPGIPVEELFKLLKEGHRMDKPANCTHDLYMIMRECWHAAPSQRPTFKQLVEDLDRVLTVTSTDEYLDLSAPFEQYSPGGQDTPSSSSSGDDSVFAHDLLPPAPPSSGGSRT

[15] = biological target: Ephrin type-B receptor 4 (Homo sapiens) (UniProt P54760); experiment: Inhibition of human EphB4 assessed as enzyme activity at 1 uM relative to control; set-up: scale not given: the % may be the effect or the level left
[16] = biological target: Protein kinase C eta type (Homo sapiens) (UniProt P24723); experiment: Inhibition of human PKCeta assessed as enzyme activity at 1 uM relative to control; set-up: scale not given: the % may be the effect or the level left
[17] = biological target: Serine/threonine-protein kinase 24 (Homo sapiens) (UniProt Q9Y6E0); experiment: Inhibition of human MST3 assessed as enzyme activity at 1 uM relative to control; set-up: scale not given: the % may be the effect or the level left
[18] = biological target: Discoidin domain-containing receptor 2 (Homo sapiens) (UniProt Q16832); experiment: Inhibition of human DDR2 assessed as enzyme activity at 1 uM relative to control; set-up: scale not given: the % may be the effect or the level left
Sequence of Discoidin domain-containing receptor 2 (Homo sapiens) (Q16832 whole entry, the tested form may be a part): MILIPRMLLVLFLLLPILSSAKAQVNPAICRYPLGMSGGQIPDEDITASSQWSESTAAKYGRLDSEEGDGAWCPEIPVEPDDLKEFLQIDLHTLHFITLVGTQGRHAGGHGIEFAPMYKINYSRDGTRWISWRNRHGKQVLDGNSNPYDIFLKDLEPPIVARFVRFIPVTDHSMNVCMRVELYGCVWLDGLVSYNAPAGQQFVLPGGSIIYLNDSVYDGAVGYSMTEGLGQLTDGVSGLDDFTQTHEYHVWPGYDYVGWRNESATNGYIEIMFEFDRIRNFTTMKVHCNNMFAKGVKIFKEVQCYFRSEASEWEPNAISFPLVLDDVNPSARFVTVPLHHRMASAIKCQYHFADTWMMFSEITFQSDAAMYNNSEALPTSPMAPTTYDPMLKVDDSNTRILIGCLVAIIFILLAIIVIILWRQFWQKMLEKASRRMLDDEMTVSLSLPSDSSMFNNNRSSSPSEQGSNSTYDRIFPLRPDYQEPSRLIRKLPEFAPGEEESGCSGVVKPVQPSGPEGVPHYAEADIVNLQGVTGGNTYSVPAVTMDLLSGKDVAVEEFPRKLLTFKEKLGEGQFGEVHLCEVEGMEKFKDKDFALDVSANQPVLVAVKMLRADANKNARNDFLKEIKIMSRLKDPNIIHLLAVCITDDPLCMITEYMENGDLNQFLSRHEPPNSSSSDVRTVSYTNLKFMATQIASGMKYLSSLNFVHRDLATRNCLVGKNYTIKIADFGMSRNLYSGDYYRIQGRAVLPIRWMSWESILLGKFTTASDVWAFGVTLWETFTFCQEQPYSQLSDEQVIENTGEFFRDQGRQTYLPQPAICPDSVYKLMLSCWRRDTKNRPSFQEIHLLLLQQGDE

[19] = biological target: Calcium/calmodulin-dependent protein kinase type II subunit delta (Homo sapiens) (UniProt Q13557); experiment: Inhibition of human CAMK2d assessed as enzyme activity at 1 uM relative to control; set-up: scale not given: the % may be the effect or the level left
Sequence of Calcium/calmodulin-dependent protein kinase type II subunit delta (Homo sapiens) (Q13557 whole entry): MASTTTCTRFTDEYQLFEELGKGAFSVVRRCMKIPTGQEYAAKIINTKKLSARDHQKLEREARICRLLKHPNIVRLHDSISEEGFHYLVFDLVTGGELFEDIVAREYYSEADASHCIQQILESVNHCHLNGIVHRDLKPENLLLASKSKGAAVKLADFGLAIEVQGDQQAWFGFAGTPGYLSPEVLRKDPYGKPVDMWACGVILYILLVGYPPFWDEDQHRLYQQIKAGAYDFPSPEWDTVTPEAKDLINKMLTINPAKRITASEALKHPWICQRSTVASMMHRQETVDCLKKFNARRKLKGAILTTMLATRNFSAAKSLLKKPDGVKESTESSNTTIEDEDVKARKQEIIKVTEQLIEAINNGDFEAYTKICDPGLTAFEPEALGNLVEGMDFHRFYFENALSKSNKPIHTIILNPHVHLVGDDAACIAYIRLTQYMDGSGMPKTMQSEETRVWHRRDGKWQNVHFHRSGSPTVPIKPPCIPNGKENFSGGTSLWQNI

[20] = biological target: High affinity nerve growth factor receptor (Homo sapiens) (UniProt P04629); experiment: Inhibition of human TrkA assessed as enzyme activity at 1 uM relative to control; set-up: scale not given: the % may be the effect or the level left
Sequence of High affinity nerve growth factor receptor (Homo sapiens) (P04629 33-796 limits assumed): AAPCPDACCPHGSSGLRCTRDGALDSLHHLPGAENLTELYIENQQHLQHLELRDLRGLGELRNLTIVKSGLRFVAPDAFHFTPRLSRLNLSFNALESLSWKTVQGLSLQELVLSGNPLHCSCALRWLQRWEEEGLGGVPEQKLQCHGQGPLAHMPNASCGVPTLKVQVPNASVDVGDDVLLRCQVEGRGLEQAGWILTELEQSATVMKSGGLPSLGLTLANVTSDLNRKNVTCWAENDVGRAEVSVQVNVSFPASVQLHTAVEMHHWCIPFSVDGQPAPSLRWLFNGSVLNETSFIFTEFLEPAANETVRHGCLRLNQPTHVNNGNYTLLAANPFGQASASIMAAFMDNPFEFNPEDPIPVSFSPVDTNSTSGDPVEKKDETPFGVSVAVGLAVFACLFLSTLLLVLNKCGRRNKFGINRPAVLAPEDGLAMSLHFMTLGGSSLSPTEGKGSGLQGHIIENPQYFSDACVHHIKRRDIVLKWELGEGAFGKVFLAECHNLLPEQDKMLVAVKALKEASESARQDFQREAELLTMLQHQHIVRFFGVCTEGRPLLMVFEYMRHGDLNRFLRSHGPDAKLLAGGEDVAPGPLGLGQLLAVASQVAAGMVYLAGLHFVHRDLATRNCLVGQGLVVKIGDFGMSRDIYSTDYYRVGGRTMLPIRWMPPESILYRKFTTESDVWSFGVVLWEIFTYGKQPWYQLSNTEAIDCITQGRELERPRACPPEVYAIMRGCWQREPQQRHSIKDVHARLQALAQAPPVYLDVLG

[21] = biological target: Mast/stem cell growth factor receptor Kit (Homo sapiens) (UniProt P10721); experiment: Inhibition of human KIT assessed as enzyme activity at 1 uM relative to control; set-up: scale not given: the % may be the effect or the level left
[22] = biological target: Tyrosine-protein kinase HCK (Homo sapiens) (UniProt P08631); experiment: Inhibition of human Hck assessed as enzyme activity at 1 uM relative to control; set-up: scale not given: the % may be the effect or the level left
[23] = biological target: Serine/threonine-protein kinase B-raf (Homo sapiens, UniProt P15056, V600E); experiment: Inhibition of full-length B-Raf V600E mutant (unknown origin)
Sequence of Serine/threonine-protein kinase B-raf (P15056 2-766 V600E limits assumed): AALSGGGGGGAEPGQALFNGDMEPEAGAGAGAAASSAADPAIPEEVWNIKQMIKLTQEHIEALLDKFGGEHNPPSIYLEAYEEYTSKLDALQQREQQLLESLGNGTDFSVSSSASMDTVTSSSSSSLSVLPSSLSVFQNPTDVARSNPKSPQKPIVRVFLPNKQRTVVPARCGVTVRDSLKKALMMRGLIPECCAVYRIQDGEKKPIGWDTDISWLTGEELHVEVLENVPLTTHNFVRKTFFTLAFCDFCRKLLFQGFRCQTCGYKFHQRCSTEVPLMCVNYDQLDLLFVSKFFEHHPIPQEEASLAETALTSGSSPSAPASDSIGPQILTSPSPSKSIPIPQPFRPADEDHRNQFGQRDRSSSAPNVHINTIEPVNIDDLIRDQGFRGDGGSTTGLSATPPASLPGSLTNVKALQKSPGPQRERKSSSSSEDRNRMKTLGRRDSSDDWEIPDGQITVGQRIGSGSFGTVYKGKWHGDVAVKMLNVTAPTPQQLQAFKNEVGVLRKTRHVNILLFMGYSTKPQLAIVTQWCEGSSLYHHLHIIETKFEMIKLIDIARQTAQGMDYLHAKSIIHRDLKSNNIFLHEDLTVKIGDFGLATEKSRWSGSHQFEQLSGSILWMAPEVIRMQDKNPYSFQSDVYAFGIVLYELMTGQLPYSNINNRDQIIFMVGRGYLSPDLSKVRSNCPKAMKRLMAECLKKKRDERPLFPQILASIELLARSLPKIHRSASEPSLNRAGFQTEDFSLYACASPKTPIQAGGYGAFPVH

[24] = biological target: Serine/threonine-protein kinase pim-3 (Homo sapiens) (UniProt Q86V86); experiment: Inhibition of human Pim-3 assessed as enzyme activity at 1 uM relative to control; set-up: scale not given: the % may be the effect or the level left
[25] = biological target: CDK9/cyclin T1 (Homo sapiens) (UniProt O60563+P50750); experiment: Inhibition of human CDK9/cyclinT1 assessed as enzyme activity at 1 uM relative to control; assay type: protein-complex assay; set-up: scale not given: the % may be the effect or the level left
[26] = biological target: Tyrosine-protein kinase TXK (Homo sapiens) (UniProt P42681); experiment: Inhibition of human Txk assessed as enzyme activity at 1 uM relative to control; set-up: scale not given: the % may be the effect or the level left
[27] = biological target: Mitogen-activated protein kinase kinase kinase 9 (Homo sapiens) (UniProt P80192); experiment: Inhibition of human MLK1 assessed as enzyme activity at 1 uM relative to control; set-up: scale not given: the % may be the effect or the level left
[28] = biological target: Tyrosine-protein kinase Tec (Homo sapiens) (UniProt P42680); experiment: Inhibition of human activated TEC assessed as enzyme activity at 1 uM relative to control; set-up: scale not given: the % may be the effect or the level left
[29] = biological target: Serine/threonine-protein kinase PAK 4 (Homo sapiens) (UniProt O96013); experiment: Inhibition of human PAK4 assessed as enzyme activity at 1 uM relative to control; set-up: scale not given: the % may be the effect or the level left
Sequence of Serine/threonine-protein kinase PAK 4 (Homo sapiens) (O96013 whole entry, looked up): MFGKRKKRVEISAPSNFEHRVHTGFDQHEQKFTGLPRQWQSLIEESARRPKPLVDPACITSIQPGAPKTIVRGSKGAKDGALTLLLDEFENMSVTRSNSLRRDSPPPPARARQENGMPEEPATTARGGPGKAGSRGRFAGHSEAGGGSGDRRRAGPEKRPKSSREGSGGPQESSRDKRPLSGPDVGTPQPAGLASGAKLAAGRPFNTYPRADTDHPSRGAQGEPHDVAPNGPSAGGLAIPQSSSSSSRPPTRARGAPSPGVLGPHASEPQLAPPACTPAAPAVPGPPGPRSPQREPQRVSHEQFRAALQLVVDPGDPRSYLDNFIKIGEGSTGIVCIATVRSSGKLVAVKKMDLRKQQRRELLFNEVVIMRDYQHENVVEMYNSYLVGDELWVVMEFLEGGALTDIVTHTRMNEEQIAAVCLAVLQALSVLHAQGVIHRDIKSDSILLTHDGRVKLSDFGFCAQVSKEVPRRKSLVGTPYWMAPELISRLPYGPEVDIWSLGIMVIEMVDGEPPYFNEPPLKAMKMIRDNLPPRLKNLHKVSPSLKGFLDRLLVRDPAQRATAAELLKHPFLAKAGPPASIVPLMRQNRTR

[30] = biological target: Ephrin type-B receptor 2 (Homo sapiens) (UniProt P29323); experiment: Inhibition of human EphB2 assessed as enzyme activity at 1 uM relative to control; set-up: scale not given: the % may be the effect or the level left
[31] = Clearance in mouse at 2.5 mg/kg, iv; assay type: ADME, organism-based; set-up: dose 2.5 mg/kg, route intravenous; conditions: in vivo
[32] = biological target: Focal adhesion kinase 1 (Homo sapiens) (UniProt Q05397); experiment: Inhibition of human FAK assessed as enzyme activity at 1 uM relative to control; set-up: scale not given: the % may be the effect or the level left
[33] = biological target: Dual specificity tyrosine-phosphorylation-regulated kinase 2 (Homo sapiens) (UniProt Q92630); experiment: Inhibition of human DYRK2 assessed as enzyme activity at 1 uM relative to control; set-up: scale not given: the % may be the effect or the level left
[34] = biological target: Dual specificity mitogen-activated protein kinase kinase 1 (Homo sapiens) (UniProt Q02750); experiment: Inhibition of human MEK1 assessed as enzyme activity at 1 uM relative to control; set-up: scale not given: the % may be the effect or the level left
[35] = biological target: Cyclin-dependent kinase 2/cyclin E1 (Homo sapiens) (UniProt P24864+P24941); experiment: Inhibition of human CDK2/cyclinE assessed as enzyme activity at 1 uM relative to control; assay type: protein-complex assay; set-up: scale not given: the % may be the effect or the level left
[36] = biological target: Rho-associated protein kinase 1 (Homo sapiens) (UniProt Q13464); experiment: Inhibition of human ROCK-1 assessed as enzyme activity at 1 uM relative to control; set-up: scale not given: the % may be the effect or the level left
[37] = biological target: Casein kinase I isoform gamma-3 (Homo sapiens) (UniProt Q9Y6M4); experiment: Inhibition of human CK1gamma3 assessed as enzyme activity at 1 uM relative to control; set-up: scale not given: the % may be the effect or the level left
[38] = biological target: Homeodomain-interacting protein kinase 1 (Homo sapiens) (UniProt Q86Z02); experiment: Inhibition of human HIPK1 assessed as enzyme activity at 1 uM relative to control; set-up: scale not given: the % may be the effect or the level left

CCCS(=O)(=O)Nc1cccc(Nc2ccc3ncn(C)c(=O)c3c2)c1C#N
Activity [1]: 101% | Activity [2]: 110% | Activity [3]: 102% | Activity [4]: 109% | Activity [5]: 103% | Activity [6]: 102% | Activity [7]: 112% | Activity [8]: 102% | AUC [9]: 483 µM·h | Activity [10]: 121% | inhibition in vivo at 30 mg/kg [11]: 95% | Activity [12]: 83.5% | Activity [13]: 129% | Activity [14]: 112% | Activity [15]: 104% | Activity [16]: 101% | Activity [17]: 100% | Activity [18]: 100% | Activity [19]: 94.5% | Activity [20]: 103% | Activity [21]: 94.5% | Activity [22]: 94.5% | IC50 [23]: 0.3 nM | Activity [24]: 97% | Activity [25]: 104% | Activity [26]: 104% | Activity [27]: 90% | Activity [28]: 102% | Activity [29]: 92% | Activity [30]: 94.5% | clearance [31]: 1.6 mL/min/kg | Activity [32]: 102% | Activity [33]: 99% | Activity [34]: 97% | Activity [35]: 106% | Activity [36]: 108% | Activity [37]: 91.5% | Activity [38]: 114%

Source: ChEMBL document CHEMBL3232845 (Bioorg Med Chem Lett, 2014)
